Here are results for six compounds from ChEMBL document CHEMBL1121750, “Adenosine deaminase inhibitors. Conversion of a single chiral synthon into erythro- and threo-9-(2-hydroxy-3-nonyl)adenines” (J Med Chem, 1981).

pKi: −log10 of the molar value.

The test has as its target T1, Adenosine deaminase (Homo sapiens, UniProt P00813).
T1 sequence (P00813 whole entry): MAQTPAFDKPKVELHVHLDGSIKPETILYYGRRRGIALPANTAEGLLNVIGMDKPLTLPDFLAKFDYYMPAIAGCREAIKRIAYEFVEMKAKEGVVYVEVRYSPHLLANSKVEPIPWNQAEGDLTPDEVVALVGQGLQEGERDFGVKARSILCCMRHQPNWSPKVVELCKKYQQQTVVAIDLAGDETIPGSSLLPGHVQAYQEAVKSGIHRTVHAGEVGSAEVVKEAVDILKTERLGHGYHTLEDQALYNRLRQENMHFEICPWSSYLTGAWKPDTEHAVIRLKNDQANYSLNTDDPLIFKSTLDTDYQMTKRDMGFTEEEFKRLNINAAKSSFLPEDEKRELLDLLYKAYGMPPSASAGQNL
Description: Compound was evaluated for the inhibition of adenosine deaminase.

With `CCCCCC[C@@H]([C@H](C)O)n1cnc2c(N)ncnc21`, the negative-log Ki (pKi) was 7.10. For `CCCCCC[C@H]([C@@H](C)O)n1cnc2c(N)ncnc21` the value was 6.91; for `CCCCCC[C@@H]([C@@H](C)O)n1cnc2c(N)ncnc21` (stereo in doubt; (-)) [EHNA], 6.30. `CCCCCC[C@@H]([C@@H](C)O)n1cnc2c(N)ncnc21` (stereo in doubt; erythro) [EHNA] gave a negative-log Ki (pKi) of 9.40.

Compound `CCCCCC[C@H]([C@H](C)O)n1cnc2c(N)ncnc21` [(+)-EHNA] had a negative logarithm of the Ki (pKi) of 8.70.

Take `OC[C@H]1O[C@@H](n2cnc3c2N=CNC[C@H]3O)[C@H](O)[C@@H]1O` [COFORMYCIN]: the pKi is 10.00.
